The results in this text go back to ChEMBL document CHEMBL1201862, “PubChem BioAssay data set” (2004).

SMILES strings stand for the structures.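 Grown in 96-well plates, cells were treated for 48 hours with each compound at five concentrations. Insufficient inhibition: endpoint recorded as highest concentration tested. GI50: concentration for 50% inhibition of growth.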 Calls of active or inactive are those of the source. Rule as the data show it: active = GI50 up to about 1.1 µM and inactive = higher. Where only a bound is given, the exact number is not on record here.

Assay in all cases: NCI-60 cell line screen, 48 h
The subject of test [1] is 786-0.
Test [2] concerns A549.
Test [3] deals with CAKI-1.
Test [4] relates to COLO 205.
The subject of test [5] is HCT-15.
The subject of test [6] is Hs-578T.
In test [7] the test system is MDA-MB-231.
Test [8] relates to Malme-3M.
The subject of test [9] is NCI-H226.
The test system of test [10] is NCI-H460.
Test [11] deals with NCI-H522.
The subject of test [12] is OVCAR-4.
For test [13], the system named is OVCAR-5.
The subject of test [14] is SF-268.
Test [15] deals with SF-295.
Test [16] deals with SF-539.
The test system of test [17] is SK-MEL-2.
Test [18] has as its system SN12C.
In test [19] the test system is TK-10.
In test [20] the test system is UACC-62.

`CC1=NOC2(C1)C(=O)Nc1ccccc12` (stereo not given): the GI50 in test [1] is > 100 µM (inactive); in test [2], > 100 µM (inactive); in test [3], 30.3 µM (inactive); in test [4] it was > 100 µM (inactive); in test [5], over 100 µM; in test [6], > 100 µM (inactive). Further, the GI50 in test [7] was > 100 µM (inactive); in test [8], > 100 µM (inactive); in [9], 50.8 µM (inactive); in test [10], > 100 µM (inactive); in [11] it was > 100 µM (inactive); in [12] it was > 100 µM (inactive). For the same molecule, the GI50 in test [13], in [14], in test [15], in test [16], in test [17] and in test [18] was > 100 µM (inactive) in each case. Further, the GI50 in [19] and in [20] was > 100 µM (inactive) throughout.
For `CN(CCCN1CCCC1)CCCN(C)C(=O)Cc1ccc(Cl)c(Cl)c1`, the GI50 was 13.4 µM (inactive) in [1]; 18.6 µM (inactive) in test [2]; 20.6 µM (inactive) in test [3]; 17.6 µM (inactive) in test [4]; 26.1 µM in test [5]; 5.85 µM (inactive) in test [6]. Besides, the GI50 in test [7] is 12.6 µM (inactive); in test [8], 18.3 µM (inactive); in [9] it was 26.2 µM (inactive); in test [10], 16.3 µM (inactive); in test [11], 15.7 µM (inactive); in test [12], 29.6 µM (inactive). The GI50 in [13] is 29.4 µM (inactive); in test [14] it was 8.87 µM (inactive); in test [15], 17.7 µM (inactive); in test [16], 16.7 µM (inactive); in test [17], 13.5 µM (inactive); in test [18] it was 21 µM (inactive). The GI50 in test [19] is 16.2 µM (inactive); in test [20] it was 2.36 µM (inactive).
Regarding `[N-]=[N+]=Nc1ccc(NCCCCCC(=O)ON2C(=O)CCC2=O)c([N+](=O)[O-])c1`, the GI50 in test [1] is > 100 µM (inactive); in test [2], 78.9 µM (inactive); in test [3] it was 34.4 µM (inactive); in [4], > 100 µM (inactive); in test [5], over 100 µM; in [6], < 0.01 µM (active). Also, the GI50 in test [7] was 77.1 µM (inactive); in test [8] it was 27.9 µM (inactive); in test [9] it was > 100 µM (inactive); in test [10], 61.7 µM (inactive); in [11] it was 39.3 µM (inactive); in [12] it was > 100 µM (inactive). The GI50 in test [13] was 44.2 µM (inactive); in test [14], 39.3 µM (inactive); in test [15] it was > 100 µM (inactive); in [16], 30.5 µM (inactive); in [17] it was 42.4 µM (inactive); in [18], 27.4 µM (inactive). Also, the GI50 is 42.1 µM (inactive) in test [19] and 33.1 µM (inactive) in test [20].
Consider `CC(C)(C)OC(=O)N1C(OP(=O)(Oc2ccccc2)Oc2ccccc2)=CSc2ccccc21`, for which the GI50 in test [1] is 45.5 µM (inactive); in test [2], 67.8 µM (inactive); in test [3], 18.8 µM (inactive); in [4], 20.4 µM (inactive); in test [5], 37.5 µM; in test [6], 45.8 µM (inactive). Besides, the GI50 in [7] is 24 µM (inactive); in [8], 27.7 µM (inactive); in test [9] it was 80.2 µM (inactive); in [10] it was 29.1 µM (inactive); in [11] it was 27.1 µM (inactive); in test [12] it was 34 µM (inactive). Moreover, the GI50 in [13] was 68.9 µM (inactive); in test [14], 59 µM (inactive); in test [15], 29.3 µM (inactive); in [16] it was 72.8 µM (inactive); in test [17], 19.1 µM (inactive); in [18], 56.6 µM (inactive). In addition, the GI50 in test [19] was 35 µM (inactive); in test [20] it was 46.9 µM (inactive).
With `CN(C)CCCOc1nc2c(c(=O)n(C)c(=O)n2C)n1C.SC1=NC=NC2=NC=NC12`, the GI50 is 2.41 µM (inactive) in test [1]; 22 µM (inactive) in test [2]; 1.02 µM (active) in test [3]; 4.3 µM (inactive) in test [4]; 3.14 µM in test [5]; 16 µM (inactive) in test [6]. For the same molecule, the GI50 in test [7] is 1.69 µM (inactive); in [8], 0.634 µM (active); in test [9], 2.15 µM (inactive); in [10], 8.43 µM (inactive); in test [11], 2.79 µM (inactive); in test [12], 2.25 µM (inactive). Besides, the GI50 was 23.4 µM (inactive) in [13]; 6.31 µM (inactive) in test [14]; 2.22 µM (inactive) in test [15]; 1.7 µM (inactive) in test [16]; 6.52 µM (inactive) in test [17]; 4.06 µM (inactive) in [18]. The GI50 was 0.482 µM (active) in test [19] and 1.14 µM (inactive) in test [20].
Take `c1ccc2c(c1)ccc1cc3cc(NCCCCNc4ccc5nc6c(ccc7ccccc76)cc5c4)ccc3nc12`: the GI50 in test [1] was 0.291 µM (active); in test [2], 1.51 µM (inactive); in test [3] it was 2.01 µM (inactive); in test [4], 1.69 µM (inactive); in test [5], 0.701 µM; in [6], 1.96 µM (inactive). Also, the GI50 is 0.154 µM (active) in test [7]; 1.55 µM (inactive) in [8]; 1.73 µM (inactive) in test [9]; 0.231 µM (active) in test [10]; 1.91 µM (inactive) in [11]; 2.22 µM (inactive) in [12]. Moreover, the GI50 is 0.261 µM (active) in [13]; 1.82 µM (inactive) in [14]; 1.38 µM (inactive) in test [15]; 1.35 µM (inactive) in test [16]; 1.91 µM (inactive) in test [17]; 1.41 µM (inactive) in test [18]. For the same molecule, the GI50 in [19] is 1.64 µM (inactive); in test [20], 1.67 µM (inactive).
With `C[N+]1([O-])C2CCC1CC(OC(=O)C(CO)c1ccccc1)C2` (stereo not given), the GI50 is > 100 µM (inactive) in test [1]; > 100 µM (inactive) in test [2]; > 100 µM (inactive) in [3]; > 100 µM (inactive) in test [4]; over 55.8 µM in test [5]; > 100 µM (inactive) in [6]. The GI50 in test [7], in test [8], in [9], in [10], in test [11] and in test [12] was > 100 µM (inactive) in each case. Also, the GI50 in [13] is > 100 µM (inactive); in [14], > 100 µM (inactive); in test [15], > 100 µM (inactive); in test [16] it was > 100 µM (inactive); in test [17] it was > 100 µM (inactive); in test [18] it was > 81.7 µM (inactive). Besides, the GI50 in test [19] and in [20] was > 100 µM (inactive) throughout.
Consider `O=C(c1cc(Br)ccc1O)c1cc(Br)ccc1O`, for which the GI50 in test [1] is 16.9 µM (inactive); in test [2], 17.5 µM (inactive); in test [3], 18.2 µM (inactive); in test [4], 17.4 µM (inactive); in test [5], 18.7 µM; in [6] it was 29.8 µM (inactive). The GI50 in [7] is 17.2 µM (inactive); in [8], 17.3 µM (inactive); in test [9], 20 µM (inactive); in test [10], 17.6 µM (inactive); in test [11] it was 15 µM (inactive); in test [12], 16.6 µM (inactive). In addition, the GI50 in [13] was 17.4 µM (inactive); in [14] it was 19.5 µM (inactive); in test [15], 17.7 µM (inactive); in [16], 21.2 µM (inactive); in [17] it was 15.7 µM (inactive); in test [18], 16.7 µM (inactive). The values for the GI50 in [19] and in [20] were 18.9 µM (inactive) and 13.1 µM (inactive), respectively.
On to `COc1ccc(/C=N/n2c(-c3ccccc3)n[nH]c2=O)c(OC)c1`, for which the GI50 was 30.5 µM (inactive) in test [1]; 36.7 µM (inactive) in [2]; 41.2 µM (inactive) in [3]; > 100 µM (inactive) in test [4]; over 100 µM in test [5]; 37.2 µM (inactive) in [6]. In addition, the GI50 in test [7] is 51.5 µM (inactive); in [8], > 100 µM (inactive); in [9] it was 51.1 µM (inactive); in test [10], 51.1 µM (inactive); in test [11], > 52.2 µM (inactive); in [12], 27 µM (inactive). Also, the GI50 is > 92.9 µM (inactive) in [13]; 22.3 µM (inactive) in test [14]; 32.7 µM (inactive) in [15]; 28.4 µM (inactive) in [16]; 48.2 µM (inactive) in test [17]; 44 µM (inactive) in test [18]. The figures for the GI50 in test [19] and in test [20] were 27 µM (inactive) and 43.9 µM (inactive), respectively.
Turning to `COc1ccc(-c2c(C#N)c(O)n(NS(=O)(=O)c3ccc(C)cc3)c(=O)c2C#N)cc1`, the GI50 in [1] is 67.1 µM (inactive); in test [2], 91.8 µM (inactive); in test [3], > 100 µM (inactive); in test [4] it was > 100 µM (inactive); in test [5], 49.1 µM; in test [6], > 100 µM (inactive). In addition, the GI50 in test [7] was > 100 µM (inactive); in [8], 70.6 µM (inactive); in test [9], > 100 µM (inactive); in [10], 46.2 µM (inactive); in test [11], 13.8 µM (inactive); in [12], 81.5 µM (inactive). Moreover, the GI50 is > 100 µM (inactive) in test [13]; > 100 µM (inactive) in [14]; 75 µM (inactive) in [15]; 67.8 µM (inactive) in test [16]; > 100 µM (inactive) in test [17]; > 100 µM (inactive) in test [18]. Also, the GI50 was 79.3 µM (inactive) in [19] and 81.7 µM (inactive) in test [20].
